The values that follow come from US20090197818A1, “Use Of Ribose for Recovery From Anaesthesia” (priority 2004, published 2009).

Data set [1] deals with patients recovering from hip or knee replacement operations. In words: Anecdotal results from non-cardiac surgery with general anaesthesia. The class given is in vivo, human. An excerpt: For example, a person underwent two hip replacement operations, five months apart. With the second operation, they began taking oral ribose immediately after their recovery from anaesthesia. Their recovery to a feeling of alertness and energy was more rapid than after the first operation. Furthermore, their level of pain was less. Likewise, a person also underwent two knee replacement operations. With the second operation, they self-administered D-Ribose pre- and postoperatively. Their recovery to a feeling of alertness and energy was more rapid than after the first operation. Bauer et al. (Z. Geb. Neonatal 2001 May-June, 205(3):80-85) studied the efficacy of oral glucose for treating procedural pain in neonates. […] The authors proposed that the orogustatory stimulation by the sweet taste caused an endorphin release. It is not known whether the result seen was due to the local effect or to a systemic effect of glucose.

The test system of data set [2] is patients with aortic valve disease undergoing AVR. In words: Planned clinical trial: preconditioning with oral D-Ribose before cross clamping, then intravenous infusion. In kind it is in vivo, human. The settings on record: oral D-Ribose 7 or 14 days before surgery, then i.v. 100 mg/kg/hour for five days. The text has this:
A single-center, randomized, double-blinded placebo-controlled clinical trial was designed to determine if preoperative oral administration of D-Ribose, following by peri-operative and operative intravenous infusion of D-Ribose could improve the ejection fraction and other functional parameters of hearts that are cross-clamped for various cardiac surgical procedures. Thirty (30) patients meeting the inclusion and exclusion criteria and who have signed informed consent forms will be randomized to receive oral D-Ribose (15) or D-Glucose (placebo) (15) for seven or 14 days prior to their surgical procedure and intravenous 5% […] (5% D-Glucose in normal saline, 0.5 mL/kg/hour) or 10% pyrogen-free D-Ribose in 5% D5W at a dose of 100 mg/kg/hour for five (5) days through a pulmonary artery cordis) beginning at the time of aortic cross clamping. […] Patients will be evaluated baseline ×2, (once prior to beginning oral test supplement and again within three days prior to surgical procedure), during and after surgery, and at days 1, 5 and 7. […] Patients will be evaluated for eligibility within three days to first test article administration and evaluation will be updated within three days prior to surgery. […] A medication history will be taken and all medications recorded in the case report. […]

The subject of another data set is Wistar rats. The data set can be described thus: Planned non-cardiac sham abdominal surgery study under halothane anaesthesia. The settings on record: D-Ribose before, during and after sham operation. In kind it is in vivo, rat. As for the experimental part:
Littered-paired Wistar rats will be preconditioned with oral D-Ribose (250 mg/day, 10 animals) as a test drug or D-Glucose(250 mg/day, 10 animals) as a placebo for five days. Following the preconditioning, the rats will be anesthetized with halothane, intubated for artificial respiration and paralyzed with curare. Following general anaesthesia, the rats will be given either the test drug or placebo, intravenously (IV). A two-inch abdominal incision will be made and the viscera will be carefully manipulated to simulate an abdominal exploratory surgery. The incision will be closed and the animals will be held under anaesthesia for one additional hour. Following that hour, anaesthesia will be discontinued and the IV infusion will be halted. The animals will be placed individually in activity cages and their activity will be assessed daily for five days. Test drug or placebo will be added to the drinking water at a dosage of 5% wt/vol. The blinded results will be observed for: first movement (return to consciousness following the sham operation) and daily activity over the first day and next five days. Food and water intake and gastrointestinal function will be measured.

Data set [3] deals with adult patients selected for OCBP revascularization. The data set can be described thus: Presurgical oral D-ribose loading before off cardiopulmonary bypass (OCBP) revascularization: cardiac indices. The class given is in vivo, human. The settings on record: 24 patients oral D-ribose preoperatively vs 20 without; baseline to post-operative; p<0.028. An excerpt: Patients with stable coronary artery disease or patients presenting with acute myocardial infarction may undergo revascularization using an “off” cardiopulmonary bypass procedure (“OCBP”). This procedure avoids the deleterious effects of cross-clamping in patients who can be selected for the procedure. The selection criteria include: accessibility of the grafts; number of the grafts; condition of the patient. When the area to be revascularized is at the back of the heart, the heart will need to be handled and rotated, which would interfere with the beating of the heart. If several grafts are needed, the time of operation is prolonged and the patient's heart will need to support circulation for a long time. Finally, a poorly functioning heart will need the assistance of the pump to support circulation. Nevertheless, in properly selected patients, the benefits of avoiding cross-clamping are substantial.
Forty-four adult patients were enrolled in a trial. At least one-third of the patents had sustained an acute myocardial infarction prior to presentation and pre-operative ejection fractions ranged from 30-72%. All patients were selected for OCBP revascularization with 20 patients consuming no pre-operative ribose and 24 patients given oral D-ribose preoperatively, cardiac indices were measured at baseline and post-operatively. […]

In a further data set the test system is healthy dog hearts. The settings on record: D-Ribose from reperfusion for at least four days; U.S. Pat. No. 4,719,201; cited from earlier work.
Data set [4] can be described thus: Blood glucose monitoring and clinical laboratory safety in the intravenous D-Ribose cardiac surgery trial. The class given is in vivo, human. As for the experimental part: Blood glucose levels were determined hourly, after initiation of the study drug infusion, by dextrastix (Accu-Chk III, Boehringer Mannheim Corp. Indianapolis Ind.) using blood from an intraarterial catheter. If the blood glucose level remained stable for 12 hours, then subsequent blood glucose levels were measured every 4 to 6 hours until the study drug infusion was stopped. Other clinical laboratory measurements including complete CBC with differential, platelet count, electrolytes=, liver function studies, serum osmolarity, and urinalysis were completed the morning following surgery. Abnormal laboratory tests were repeated as clinically indicated until normal or determined not to be clinically significant.
Five patients (28%) in the ribose treated group developed hypoglycemia (fingerstick glucose<70 mg/dl)) a known side effect of this pentose sugar. No placebo treated patients developed hypoglycemia. The mean glucose level in those patients developing hypoglycemia was 58 mg/dl. The lowest glucose level was 31 mg/dl. […] The study drug infusion was stopped in two subjects because of hypoglycemia. […] There were no statistical differences in the other clinical laboratory measurements.

The subject of data set [5] is patients undergoing valve surgery plus CABG or CABG alone with aortic cross clamping. The data set can be described thus: Double-blind placebo-controlled clinical trial of intravenous D-Ribose in cardiac surgery: ejection fraction by echocardiography. In kind it is in vivo, human. The settings on record: placebo EF declined; ANOVA repeated measures p=0.04. An excerpt: A protocol was devised to test whether human subjects undergoing either valve surgery plus coronary artery bypass graft (CABG) or CABG alone with decreased heart function would benefit from the administration of ribose following heart surgery as did the healthy dogs of the Foker study. […] Inclusion criteria were: • Males or females aged 18 or older • Patients with documented coronary artery disease undergoing CABG with an ejection fraction (EF) of ≦35% based on echocardiography, radionuclide imaging or cardiac catheterization done within eight weeks of surgery. […] For both the transesophageal and transthoracic echocardiograms, the following long axis and short axis mid-papillary area changes were measured in triplicate by acoustic quantification techniques: end diastolic area (EDA), end systolic area (ESA), fractional area change (FAC), +dA/dt and -dA/dt. All area change data were also analyzed by manual off line analysis. EF was also determined off line using a long axis view. In addition, regional wall motion was quantified as the following: normal=1, hypokinetic=2, akinetic=3 and dyskinetic=4. The wall motion index score (WMIS) and percentage normal myocardium were calculated by reading a maximum of sixteen segments. […]

The test system of a further data set is rats. The settings on record: halothane for 30 minutes; Hendricks et al. 1984; cited from earlier work.

With `O=C[C@H](O)[C@H](O)[C@H](O)CO` [D-Ribose], the “recovery to a feeling of alertness and energy compared with first operation” value in [1] (oral ribose at second operation, single patients) was “more rapid”. Besides, the “level of pain compared with first operation” value in [1] (person, oral ribose after second hip replacement) was “less”. Also, the “time to cardiac arrest with cardioplegia containing ribose versus animals not given ribose” value with cross-bred sheep (difference not statistically significant) is “somewhat faster”. Also, the “tolerability of supplemental ribose” value in the data set on cross-bred sheep (in vivo) is “no metabolic or chemical abnormalities”. Further, the “time quiet and inactive after extubation” value with cross-bred sheep (untreated series: additional 2 hours) was “about one”. Also, the “time to assume a consciousness state versus animals not given ribose” value in the data set on cross-bred sheep (upon weaning from the ventilator) is “faster”. For the same compound, the “expected myocardial function versus placebo” value in [2] is listed as “better myocardial function”. Further, in the data set with Wistar rats, the “expected activity during the following five days versus placebo” value is reported as “increased activity” and the “expected first movement after anaesthesia versus placebo” value is reported as “earlier movement”. For the same compound, the “greater increase in cardiac indices compared to controls” value in [3] worked out at 49%. In the data set on healthy dog hearts, the “ATP recovery after global myocardial ischemia” value is “enhanced ATP recovery”. Further, the “patients with neurological or other clinical symptoms associated with hypoglycemia” value in [4] (hypoglycemic patients of the ribose treated group) is “None”. Further, in data set [4] (ribose treated group), the lowest glucose level stood at 31 mg/dL and the “mean glucose level in patients developing hypoglycemia” value was 58 mg/dL. Moreover, the “patients who developed hypoglycemia (fingerstick glucose<70 mg/dl)” value in [4] (ribose treated group, five patients, none in placebo) is listed as 28%. Further, the “course of EF from baseline to Day 7 versus placebo” value in [5] is “EF was maintained”.

On to `FC(F)(F)C(Cl)Br` (centres unmarked) [halothane], for which the “behavioural effects during the first week after anaesthesia” value in the data set on rats was “reduced spontaneous activity and neurological deficit”.
